Assay results: patent publication EP2092932A2, “Processes to pre-treat hair with organic solvents” (The Procter and Gamble Company, priority 2006, dated 2008)

Experiment: Hair treatment protocol: solvent pre-treatment before oxidative dyeing, colour strength K/S measured by spectrophotometer
Conditions: for K/.S vs. DI Water: switch soaked 5 minutes in neat solvent, then level 3 oxidative hair colorant (Nice n' Easy) 30 minutes at 30°C, dye uptake change vs. DI water

| SMILES | K/.S vs. DI Water [%] | K/S vs. DI Water (Glycerine Content 10 % wt. in deionised water as pre-treatment composition) [%] | K/S vs. DI Water (Glycerine Content 25 % wt. in deionised water as pre-treatment composition) [%] | K/S vs. DI Water (Glycerine Content 50 % wt. in deionised water as pre-treatment composition) [%] | K/S vs. DI Water (Glycerine Content 70 % wt. in deionised water as pre-treatment composition) [%] |
| --- | --- | --- | --- | --- | --- |
| OCCOCCO [Diethyleneglycol] | -50 | – | – | – | – |
| OCC(O)CO [Glycerine] | -40 | -2 | -4 | -20 | -43 |
